Experimental data published in patent US9206156B2, “Substituted indole derivatives” (GRÜNENTHAL GMBH, priority 2008, dated 2015).

Key:
ORL1 receptor = biological target: T1, ORL1 receptor (Homo sapiens, UniProt P41146); assay: ORL1 receptor binding assay with 3H-nociceptin/orphanin FQ (WGA-SPA beads); conditions: c=1 μM test substance; 0.5 nM 3H-nociceptin/orphanin FQ; membranes of recombinant CHO-ORL1 cells
T1 construct: expressed in transfected cells; host or cells: CHO (recombinant CHO-ORL1 cells), membranes
Procedure, shortened: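 Radioligand displacement on membranes from recombinant CHO-ORL1 cells, 0.5 nM 3H-nociceptin/orphanin FQ, 20 μg membrane protein per batch in 50 mM Hepes pH 7.4, 10 mM MgCl2, 1 mM EDTA. Incubated 1 h at room temperature with WGA-SPA beads, scintillation read. Reported as Ki (nM) or % inhibition at 1 μM.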

human μ-opiate receptor = biological target: T2, human μ-opiate receptor (Homo sapiens, UniProt P35372); assay: μ-opiate receptor binding assay with [3H] naloxone (WGA-SPA beads); conditions: 1 μmol/l test substance, 1 nmol/l [3H] naloxone, CHO-K1 cell membranes expressing human μ-opiate receptor
T2 construct: purchased NEN, Zaventem, Belgium RB-HOM; host or cells: CHO-K1 cells (membrane preparation)
Procedure, shortened: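 CHO-K1 membranes expressing human μ-opiate receptor incubated 90 min at room temperature with 1 nmol/l [3H]naloxone and WGA-SPA beads in 50 mmol/l Tris-HCl with 0.05% azide, 0.06% BSA. Non-specific binding with 25 μmol/l naloxone; % inhibition at 1 μmol/l, or IC50 converted to Ki via Cheng-Prusoff.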

T1 sequence (P41146 whole entry): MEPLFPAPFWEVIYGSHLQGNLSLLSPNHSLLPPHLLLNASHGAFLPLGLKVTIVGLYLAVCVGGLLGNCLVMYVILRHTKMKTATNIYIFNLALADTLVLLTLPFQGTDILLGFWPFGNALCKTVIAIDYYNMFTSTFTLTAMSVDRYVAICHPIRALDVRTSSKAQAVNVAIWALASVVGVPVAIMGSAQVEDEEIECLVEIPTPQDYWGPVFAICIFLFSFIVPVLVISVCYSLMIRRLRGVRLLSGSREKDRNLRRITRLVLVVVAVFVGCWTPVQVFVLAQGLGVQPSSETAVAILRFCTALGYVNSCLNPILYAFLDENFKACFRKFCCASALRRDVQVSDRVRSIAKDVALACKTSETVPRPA
T2 sequence (P35372 whole entry): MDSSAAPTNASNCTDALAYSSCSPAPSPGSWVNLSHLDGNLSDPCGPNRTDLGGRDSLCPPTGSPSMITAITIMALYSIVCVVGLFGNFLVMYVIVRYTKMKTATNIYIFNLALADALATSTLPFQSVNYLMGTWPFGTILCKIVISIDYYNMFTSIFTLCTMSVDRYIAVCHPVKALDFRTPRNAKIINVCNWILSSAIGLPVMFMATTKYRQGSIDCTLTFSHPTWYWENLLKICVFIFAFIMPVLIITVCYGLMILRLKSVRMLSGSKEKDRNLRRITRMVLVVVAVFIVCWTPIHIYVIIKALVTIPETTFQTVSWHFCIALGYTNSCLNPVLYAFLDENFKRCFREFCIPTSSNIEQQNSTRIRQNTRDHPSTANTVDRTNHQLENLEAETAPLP

CN(C)C1(c2cccs2)CCN(CCNC(=O)c2ccc3ccn(C)c3c2)CC1 [Example 9, N-(2-(4-(Dimethylamino)-4-(thiophen-2-yl)piperidin-1-yl)ethyl)-1-methyl-1H-indole-6-carboxamide]
inhibition at 1 µM (ORL1 receptor): 77%
inhibition at 1 µM (human μ-opiate receptor): 101%

CN(CCN1CCC(c2ccccc2)(N(C)C)CC1)Cc1cccc2[nH]ccc12 [Example 194, 1-(2-(((1H-indol-4-yl)methyl)(methy)amino)ethyl)-N,N-dimethyl-4-phenylpiperidin-4-amine]
% Inhibition (ORL1) at 1 μM (ORL1 receptor): 56%
% Inhibition (μ) at 1 μM (human μ-opiate receptor): 99%

CC(C)C(C(=O)N1CCC(c2ccccc2)(N(C)C)CC1)N(C)C(=O)CCc1c[nH]c2ccccc12 (stereo not shown) [Example 94, N-(1-(4-(dimethylamino)-4-phenylpiperidin-1-yl)-3-methyl-1-oxobutan-2-yl)-3-(1H-indol-3-yl)-N-methylpropanamide]
inhibition at 1 µM (ORL1 receptor): 82%
inhibition at 1 µM (human μ-opiate receptor): 71%

CN(C(=O)c1ccc2cc[nH]c2c1)C(C(=O)N1CCC(c2cccs2)(N(C)C)CC1)c1ccccc1 (stereo not shown) [Example 102, N-(2-(4-(dimethylamino)-4-(thiophen-2-yl)piperidin-1-yl)-2-oxo-1-phenylethyl)-N-methyl-1H-indole-6-carboxamide]
inhibition at 1 µM (ORL1 receptor): 65%
inhibition at 1 µM (human μ-opiate receptor): 66%

CN(CCN1CCC(c2ccccc2)(N(C)C)CC1)Cc1c[nH]c2ccccc12 [Example 187, 1-(2-(((1H-indol-3-yl)methyl)(methy)amino)ethyl)-N,N-dimethyl-4-phenylpiperidin-4-amine]
% Inhibition (ORL1) at 1 μM (ORL1 receptor): 87%
% Inhibition (μ) at 1 μM (human μ-opiate receptor): 100%

CN(CCN1CCC(c2ccccc2)(N(C)C)CC1)C(=O)c1ccc2cc[nH]c2c1 [Example 18, N-(2-(4-(Dimethylamino)-4-phenylpiperidin-1-yl)ethyl)-N-methyl-1H-indole-6-carboxamide]
inhibition at 1 µM (ORL1 receptor): 82%
inhibition at 1 µM (human μ-opiate receptor): 95%

COc1ccc2[nH]cc(CN(C)CCN3CCC(c4ccccc4)(N(C)C)CC3)c2c1 [Example 75, 1-(2-(((5-Methoxy-1H-indol-3-yl)methyl)(methyl)amino)ethyl)-N,N-dimethyl-4-phenylpiperidin-4-amine]
% Inhibition (ORL1) at 1 μM (ORL1 receptor): 79%
% Inhibition (μ) at 1 μM (human μ-opiate receptor): 97%

CN(C)C1(c2cccs2)CCN(C(=O)CC(NCc2cccc3cc[nH]c23)c2ccccc2)CC1 (stereo not shown) [Example 173, 3-((1H-indol-7-yl)methylamino)-1-(4-(dimethylamino)-4-(thiophen-2-yl)piperidin-1-yl)-3-phenylpropan-1-one]
inhibition at 1 µM (ORL1 receptor): 74%
inhibition at 1 µM (human μ-opiate receptor): 96%

CC(C)C(CC(=O)NCCN1CCC(c2cccs2)(N(C)C)CC1)c1c[nH]c2ccccc12 (stereo not shown) [Example 6, N-(2-(4-(Dimethylamino)-4-(thiophen-2-yl)piperidin-1-yl)ethyl)-3-(1H-indol-3-yl)-4-methylpentanamide]
% Inhibition (ORL1) at 1 μM (ORL1 receptor): 98%
% Inhibition (μ) at 1 μM (human μ-opiate receptor): 102%

CN(C)C1(c2cccs2)CCN(CCNCc2c[nH]c3ccc(Cl)cc23)CC1 [Example 178, 1-(2-((5-chloro-1H-indol-3-yl)methylamino)ethyl)-N,N-dimethyl-4-(thiophen-2-yl)piperidin-4-amine]
inhibition at 1 µM (ORL1 receptor): 99%
inhibition at 1 µM (human μ-opiate receptor): 100%

CCCCC1(N(C)C)CCN(CCN(C)C(=O)C2CCCc3c2[nH]c2ccc(Cl)cc32)CC1 (stereo not shown) [Example 43, N-(2-(4-Butyl-4-(dimethylamino)piperidin-1-yl)ethyl)-6-chloro-N-methyl-2,3,4,9-tetrahydro-1H-carbazole-1-carboxamide]
inhibition at 1 µM (ORL1 receptor): 21%
inhibition at 1 µM (human μ-opiate receptor): 54%

Cc1c(CN(C)CCN2CCC(c3ccccc3)(N(C)C)CC2)c2ccccc2n1C [Example 189, 1-(2-(((1,2-dimethyl-1H-indol-3-yl)methyl)(methyl)amino)ethyl)-N,N-dimethyl-4-phenylpiperidin-4-amine]
inhibition at 1 µM (ORL1 receptor): 83%
inhibition at 1 µM (human μ-opiate receptor): 100%

CN(C)C1(c2ccccc2)CCN(C(=O)C2CCCN(C(=O)CCc3cn(C)c4ccccc34)C2)CC1 (stereo not shown) [Example 133, 1-(3-(4-(dimethylamino)-4-phenylpiperidine-1-carbonyl)piperidin-1-yl)-3-(1-methyl-1H-indol-3-yl)propan-1-one]
inhibition at 1 µM (ORL1 receptor): 32%
inhibition at 1 µM (human μ-opiate receptor): 71%

CN(CCCN1CCC(c2ccccc2)(N(C)C)CC1)C(=O)CCc1c[nH]c2ccccc12 [Example 61, N-(3-(4-(Dimethylamino)-4-phenylpiperidin-1-yl)propyl)-3-(1H-indol-3-yl)-N-methylpropanamide]
inhibition at 1 µM (ORL1 receptor): 65%
inhibition at 1 µM (human μ-opiate receptor): 89%

CN(CCN1CCC(c2ccccc2)(N(C)C)CC1)Cc1c[nH]c2ccc(Cl)cc12 [Example 182, 1-(2-(((5-chloro-1H-indol-3-yl)methyl)(methy)amino)ethyl)-N,N-dimethyl-4-phenylpiperidin-4-amine]
% Inhibition (ORL1) at 1 μM (ORL1 receptor): 95%
% Inhibition (μ) at 1 μM (human μ-opiate receptor): 101%

CN(C)C1(c2ccccc2)CCN(C(=O)C2CCCN(C(=O)c3ccc4cc[nH]c4c3)C2)CC1 (stereo not shown) [Example 125, (1-(1H-indole-6-carbonyl)piperidin-3-yl)(4-(dimethylamino)-4-phenylpiperidin-1-yl)methanone]
inhibition at 1 µM (ORL1 receptor): 42%
inhibition at 1 µM (human μ-opiate receptor): 55%

CN(C)C1(c2ccccc2)CCN(C(=O)C2CCCN(C(=O)c3cccc4c3ccn4C)C2)CC1 (stereo not shown) [Example 130, (4-(dimethylamino)-4-phenylpiperidin-1-yl)(1-(1-methyl-1H-indole-4-carbonyl)piperidin-3-yl) methanone]
inhibition at 1 µM (ORL1 receptor): 36%
inhibition at 1 µM (human μ-opiate receptor): 51%
